# Laboratory results from article PMC8688955 (Frontiers in Pharmacology, 2021).
# Where two headings read alike, the source gives them in different places.
# Key:
# [1] = molecular target: non-NMDA glutamate receptors; parameters: method as in Kawano et al., 1994; conditions: expressed in Xenopus oocytes; ref Kawano et al., 1994; cited from earlier work
# CI-AMPARs = molecular target: T1, CI-AMPARs (Rattus norvegicus, UniProt P19491, Q607R); assay: Whole-cell patch-clamp of kainate-induced currents in isolated hippocampal CA1 pyramidal neurons; assay type: cell-based, Wistar rat; conditions: for % block: representative recording; for inhibition at 30 µM: 30 µM phenytoin, n = 7; for inhibition at 100 µM: 100 µM phenytoin, read-out: % inhibition; for inhibition at 50 µM: n = 6
# T1 construct: activity against native calcium-permeable AMPA receptors (CP-AMPARs) and calcium-impermeable AMPA receptors (CI-AMPARs); endogenous in cells; host or cells: acutely isolated pyramidal neurons from the CA1 area of Wistar rat hippocampal slices
# Procedure: All experimental procedures were approved by the Animal Care and Use Committee of the I.M. Sechenov Institute of Evolutionary Physiology and Biochemistry of the Russian Academy of Sciences. Wistar rats (13–19 days old) were anesthetized with sevoflurane and then decapitated. Maximum effort was made to minimize the number of animals used. Brains were removed quickly and cooled to 2–4°C in an ice bath. […] The antagonism of CI-AMPARs was studied on pyramidal neurons from the CA1 area of the hippocampus.
# Series resistance of about 20 MΩ was compensated by 70–80% and monitored during experiments. Currents were recorded using an EPC-8 amplifier (HEKA Electronics, Lambrecht, Germany), filtered at 5 kHz, sampled, and stored on a personal computer. Drugs were applied using the RSC-200 perfusion system (BioLogic Science Instruments, Claix, France) under computer control. The solution exchange time in the whole-cell mode was 50–60 ms. […] The pipette solution contained (in mM) CsF 100, CsCl 40, NaCl 5, CaCl2 0.5, EGTA 5, and HEPES 10 (pH was adjusted to 7.2 with CsOH). Experiments were performed at room temperature (22–24°C). […] Lamotrigine, topiramate, levetiracetam, felbamate, carbamazepine, tiagabin, vigabatrin, zonisamide, and gabapentin were purchased from Tocris Bioscience (Bristol, United Kingdom). Perampanel was from MedChemExpress (Stockholm, Sweden). Kinetics of transient processes of more than 20-ms duration was approximated by exponential functions. Experiments were performed at −80 mV holding voltage. All experimental data are presented as mean ± SD estimated from at least four experiments. Significance of the effects was tested with paired t test. Differences were considered significant at p < 0.05. 3D structures of compounds were calculated by the ZMM software (zmmsoft.ca).
# [2] = double-pulse protocol, 30-s pause
# T1 sequence (P19491 22-883 Q607R): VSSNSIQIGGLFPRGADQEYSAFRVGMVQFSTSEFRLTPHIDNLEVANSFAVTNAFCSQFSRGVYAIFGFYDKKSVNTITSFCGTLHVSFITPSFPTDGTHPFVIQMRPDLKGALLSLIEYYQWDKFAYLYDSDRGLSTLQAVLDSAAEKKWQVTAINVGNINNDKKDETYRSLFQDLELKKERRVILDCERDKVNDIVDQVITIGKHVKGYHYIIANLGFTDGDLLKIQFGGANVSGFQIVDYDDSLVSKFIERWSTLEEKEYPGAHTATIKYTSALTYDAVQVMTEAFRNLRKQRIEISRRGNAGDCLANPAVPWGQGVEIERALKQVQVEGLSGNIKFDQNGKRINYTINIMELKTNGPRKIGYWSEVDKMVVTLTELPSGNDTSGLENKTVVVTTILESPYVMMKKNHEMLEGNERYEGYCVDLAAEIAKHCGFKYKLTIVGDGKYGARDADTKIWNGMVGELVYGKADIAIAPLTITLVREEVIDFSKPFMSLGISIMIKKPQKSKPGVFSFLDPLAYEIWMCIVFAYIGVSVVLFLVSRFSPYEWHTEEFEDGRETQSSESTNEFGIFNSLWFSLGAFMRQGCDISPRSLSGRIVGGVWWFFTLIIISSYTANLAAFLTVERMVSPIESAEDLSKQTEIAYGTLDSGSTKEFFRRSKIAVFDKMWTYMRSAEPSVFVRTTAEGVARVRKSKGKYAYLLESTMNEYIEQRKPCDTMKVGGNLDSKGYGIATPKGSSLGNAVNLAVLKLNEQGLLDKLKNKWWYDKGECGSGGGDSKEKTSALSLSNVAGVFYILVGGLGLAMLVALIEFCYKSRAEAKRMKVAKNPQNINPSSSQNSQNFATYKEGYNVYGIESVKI
compound,measurement,setting,value
O=C1NC(=O)C(c2ccccc2)(c2ccccc2)N1 [Phenytoin],IC50,[1],≥ 100 µM
same,% block,"CI-AMPARs; 10 μM phenytoin, Figure 1A",28%
same,inhibition at 30 µM,CI-AMPARs; 50 µM kainate,55 ± 3%
same,inhibition at 30 µM,CI-AMPARs; 500 µM kainate,40 ± 7%
same,% block,"CI-AMPARs; 30 μM phenytoin, Figure 1A",52%
same,Washout kinetics τ,CI-AMPARs; 50 µM phenytoin,"1,100 ± 200 ms"
same,Activity drop in the presence of cyclothiazide,"CI-AMPARs; 100 µM cyclothiazide, 50 µM kainate",Yes
same,inhibition at 100 µM,"CI-AMPARs; 50 µM kainate, absence of cyclothiazide",74 ± 4%
same,inhibition at 100 µM,"CI-AMPARs; 50 µM kainate, presence of 100 µM cyclothiazide",21 ± 7%
same,% block,"CI-AMPARs; 100 μM phenytoin, Figure 1A",75%
same,inhibition at 300 µM,"CI-AMPARs; 300 µM compound, read-out: percentage of inhibition at 300-µM concentration",≥ 80%
same,τ of the testing response to kainate in the trapping protocol,"CI-AMPARs; 300 µM phenytoin, 500 µM kainate, n = 4",81 ± 17 ms
same,inhibition at 300 µM,"CI-AMPARs; 300 µM phenytoin, coapplication with agonist, n = 5, read-out: % inhibition of open AMPA receptor channels",87 ± 5%
same,inhibition at 300 µM,"CI-AMPARs; 300 µM phenytoin, preapplication without agonist, n = 5, read-out: % inhibition of closed AMPA receptor channels",37 ± 7%
same,% block,"CI-AMPARs; 300 μM phenytoin, Figure 1A",87%
same,inhibition of kainate-induced currents,"CI-AMPARs; 500 µM phenytoin, highest concentration tested",almost complete inhibition
same,Activity drop at high (500 µM) kainate concentration,CI-AMPARs; 50 vs 500 µM kainate,Yes
same,decrease in the % of inhibition with the increase in agonist concentration,CI-AMPARs; 50 vs 500 µM kainate,10–15%
same,% block,"CI-AMPARs; Phenytoin, 30 μM, Ka 50 μM, Figure 3A",57%
same,% block,"CI-AMPARs; Phenytoin, 30 μM, Ka 500 μM, Figure 3A",44%
same,% block,"CI-AMPARs; Phenytoin, 100 μM, Kainate, 50 μM + cyclothiazide, 100 μM, Figure 5C",19%
same,% block,"CI-AMPARs; Phenytoin, 100 μM, Kainate, 50 μM, Figure 5B",74%
same,Difference in the % of inhibition in coapplication and preapplication protocols,CI-AMPARs; coapplication with kainate vs preapplication without kainate,Yes
same,More active against CI-AMPARs,CI-AMPARs; comparison of CI-AMPARs and CP-AMPARs,Yes
same,Trap in kainate 100 µM,CI-AMPARs; [2],Yes
same,Trap in kainate 500 µM,CI-AMPARs; [2],questionable
same,Trap in kainate 100 µM,"CI-AMPARs; double-pulse protocol, 30-s pause, listed as phenytoin",pronounced trapping
same,Hill coefficient,"CI-AMPARs; inhibition of CI-AMPARs, Hill equation",0.9 ± 0.2
same,inhibition at 50 µM,"CI-AMPARs; pH 7.4, 50 µM phenytoin, pH 7.4",60 ± 3%
same,pH-dependence,CI-AMPARs; pH 7.4 vs 9.0,Yes
same,inhibition at 50 µM,"CI-AMPARs; pH 9, 50 µM phenytoin, pH 9.0",28 ± 8%
same,% block,"CI-AMPARs; phenytoin 50 μM, pH 7.4, Kainate, 100 μM, Figure 10A",62%
same,% block,"CI-AMPARs; phenytoin 50 μM, pH 9.0, Kainate, 100 μM, Figure 10A",29%
